Experimental data reported in patent publication US20180273528A1 (LES LABORATOIRES SERVIER, priority 2015, published 2018).

Assays:
[1] = target: T1, His-TEV-DYRK1A Kinase domain (aa127-485) (Homo sapiens, UniProt Q13627); assay: Kinase ADP assay (ADP Hunter), DYRK1A kinase domain; assay type: biochemical; settings: 20 μM ATP
T1 construct: His-TEV-DYRK1A Kinase domain (aa127-485); His tag (N); TEV protease cleavage site (N)
Summary of the method: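 Compounds incubated 10 min at 30 °C with 20 nM enzyme, 40 μM peptide substrate and 20 μM ATP in pH 7.4 Hepes buffer with 10 mM MgCl2. ADP formed detected by ADP Hunter Plus reagents after 20 min at 30 °C, fluorescence read at 590 nm.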

CDK9 = target: T2, CDK9 (Homo sapiens, UniProt P50750); assay: Kinase TR-FRET assay, CDK9; assay type: biochemical; settings: full-length human kinase, 10 μM ATP
T2 construct: full-length human kinases from Carna Biosciences; purchased Carna Biosciences 04-110
T2 sequence (P50750 whole entry): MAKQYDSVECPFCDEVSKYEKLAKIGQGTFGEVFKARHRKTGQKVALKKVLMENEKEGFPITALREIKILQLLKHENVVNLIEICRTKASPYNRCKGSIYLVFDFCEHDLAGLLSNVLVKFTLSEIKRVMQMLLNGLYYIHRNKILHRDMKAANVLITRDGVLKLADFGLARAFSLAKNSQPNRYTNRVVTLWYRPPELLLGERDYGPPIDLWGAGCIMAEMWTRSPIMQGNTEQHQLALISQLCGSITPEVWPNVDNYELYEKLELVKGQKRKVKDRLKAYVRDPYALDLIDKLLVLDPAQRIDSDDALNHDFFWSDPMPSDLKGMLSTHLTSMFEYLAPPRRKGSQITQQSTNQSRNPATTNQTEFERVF
T2 sequence (O60563 whole entry partner): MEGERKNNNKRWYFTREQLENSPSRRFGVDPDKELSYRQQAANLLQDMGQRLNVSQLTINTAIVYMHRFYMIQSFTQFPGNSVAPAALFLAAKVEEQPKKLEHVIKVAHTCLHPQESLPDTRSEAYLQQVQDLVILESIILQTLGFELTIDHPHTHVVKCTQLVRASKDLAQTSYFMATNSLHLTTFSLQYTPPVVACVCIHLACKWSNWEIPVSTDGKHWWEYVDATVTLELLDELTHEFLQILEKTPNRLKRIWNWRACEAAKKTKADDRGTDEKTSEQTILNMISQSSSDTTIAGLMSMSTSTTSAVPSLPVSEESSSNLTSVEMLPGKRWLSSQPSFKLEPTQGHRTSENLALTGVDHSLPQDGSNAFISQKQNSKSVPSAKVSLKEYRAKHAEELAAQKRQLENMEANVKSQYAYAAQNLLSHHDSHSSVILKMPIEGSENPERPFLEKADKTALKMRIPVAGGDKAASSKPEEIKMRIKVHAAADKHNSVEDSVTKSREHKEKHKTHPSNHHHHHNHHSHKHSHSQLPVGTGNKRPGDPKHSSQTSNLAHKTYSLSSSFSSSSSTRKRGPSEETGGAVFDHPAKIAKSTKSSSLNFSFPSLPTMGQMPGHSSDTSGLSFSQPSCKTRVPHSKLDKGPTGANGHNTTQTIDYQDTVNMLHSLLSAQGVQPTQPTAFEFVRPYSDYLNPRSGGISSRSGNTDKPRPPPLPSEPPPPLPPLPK
Experimental: Inhibition of the enzymatic activity of human kinases was evaluated in a Time-Resolved Fluorescence Resonance Energy Transfer (TR-FRET) assay in 384-well reaction plates. In this assay, full-length human kinases from Carna Biosciences—DYRK1A (NM_001396, ref. 04-130; 2.0 ng/μl), DYRK1B (NM_004714, ref. 04-131; 1.2 ng/p), CLK1 (NM_001162407, ref. 04-126; 0.7 ng/μl), CDK9 (NM_001261, ref. 04-110; 0.9 ng/μl), or GSK3β (NM_001146156, ref. 04-141; 2.0 ng/μl—were incubated for 40 minutes (DYRK1A and DYRK1B) or 100 minutes (CLK1, CDK9 and GSK3β) at room temperature with ATP (Sigma A2383, 10 μM) and a ULight™-labelled human Myelin Basic Protein (MBP) peptide substrate (Perkin Elmer TRF0109, 100 nM) in a reaction buffer composed of 50 mM HEPES pH7.4, 1 mM EGTA, 10 mM MgCl2, 2 mM DTT and 0.01% Tween20. Test compounds of the invention were added in reaction buffer at a range of concentrations from 0.1 nM to 30 μM. Following addition of EDTA (Sigma E7889, 10 mM) to stop the reaction, Europium-labelled mouse monoclonal antibody recognizing phospho-Thr232 in MBP (Perkin Elmer TRF0201, 1 nM) was added. After one hour, the reaction plates were read using a fluorescence reader (EnVision®, Perkin Elmer) at 620 nm and 665 nm (excitation at 340 nm); when the Europium donor fluorophore is excited by light at 340 nm, an energy transfer (620 nm) to the acceptor occurs, which will then emit light at 665 nm.

DYRK1A [2] = target: T3, DYRK1A (Homo sapiens, UniProt Q13627); assay: Kinase TR-FRET assay, DYRK1A; assay type: biochemical; parameters: full-length, wild-type human DYRK1A (NM_001396) with an HA tag; expressed in transfected cells; host or cells: human U2-OS osteosarcoma cells, transient transfection of a pcDNA3.1 plasmid; settings: full-length human kinase, 10 μM ATP
Experimental: (§1) Inhibition of the enzymatic activity of human kinases was evaluated in a Time-Resolved Fluorescence Resonance Energy Transfer (TR-FRET) assay in 384-well reaction plates. […] Test compounds of the invention were added in reaction buffer at a range of concentrations from 0.1 nM to 30 μM. Following addition of EDTA (Sigma E7889, 10 mM) to stop the reaction, Europium-labelled mouse monoclonal antibody recognizing phospho-Thr232 in MBP (Perkin Elmer TRF0201, 1 nM) was added.

DYRK1A [3] = target: T3, DYRK1A; assay: Cellular DYRK1 autophosphorylation assay in U2-OS cells; assay type: cell-based; parameters: full-length, wild-type human DYRK1A (NM_001396) with an HA tag; expressed in transfected cells; host or cells: human U2-OS osteosarcoma cells, transient transfection of a pcDNA3.1 plasmid; settings: U2-OS cells transfected with HA-tagged human DYRK1A, 5 hours exposure; read-out: IC50 (μM) P-Ser520-Dyrk1A -Cell assay
Summary of the method: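 U2-OS cells treated with a compound concentration range for 5 h. Phospho-Ser520-DYRK1A measured by western blot densitometry or Mesoscale ELISA. IC50 from dose-response curves; for blots, ratio of phospho-Ser520 to total DYRK1A signal.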

DYRK1B = target: T4, DYRK1B (Homo sapiens, UniProt Q9Y463); assay: Kinase TR-FRET assay, DYRK1B; assay type: biochemical; settings: full-length human kinase, 10 μM ATP
T4 construct: full-length human kinases from Carna Biosciences; purchased Carna Biosciences 04-131
T4 sequence (Q9Y463 whole entry): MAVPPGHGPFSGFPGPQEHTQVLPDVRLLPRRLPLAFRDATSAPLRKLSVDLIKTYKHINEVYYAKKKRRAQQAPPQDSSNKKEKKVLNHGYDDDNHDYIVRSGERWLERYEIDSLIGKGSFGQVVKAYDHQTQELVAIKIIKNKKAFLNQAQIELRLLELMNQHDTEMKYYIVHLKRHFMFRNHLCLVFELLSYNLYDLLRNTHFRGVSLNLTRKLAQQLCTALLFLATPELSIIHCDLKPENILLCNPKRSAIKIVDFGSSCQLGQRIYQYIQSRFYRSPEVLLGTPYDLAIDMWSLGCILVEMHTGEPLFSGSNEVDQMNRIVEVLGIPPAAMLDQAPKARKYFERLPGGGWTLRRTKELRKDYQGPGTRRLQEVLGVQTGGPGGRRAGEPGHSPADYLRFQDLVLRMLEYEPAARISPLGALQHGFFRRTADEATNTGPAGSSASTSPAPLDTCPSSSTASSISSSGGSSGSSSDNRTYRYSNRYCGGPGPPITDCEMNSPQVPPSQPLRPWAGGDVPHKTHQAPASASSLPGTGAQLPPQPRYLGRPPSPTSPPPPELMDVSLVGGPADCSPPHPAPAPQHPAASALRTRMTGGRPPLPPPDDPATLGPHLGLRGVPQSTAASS
Experimental: as §1

| Compound | IC50 [1] [µM] | IC50 (CDK9) [µM] | IC50 (DYRK1A [2]) [µM] | IC50 (DYRK1A [3]) [µM] | IC50 (DYRK1B) [µM] |
| --- | --- | --- | --- | --- | --- |
| Cc1nc2ccc(-c3cc(N)nc(N)c3)nc2n1CCO [Example 3, 2-[5-(2,6-diaminopyridin-4-yl)-2-methyl-3H-imidazo[4,5-b]pyridin-3-yl]ethanol] | 0.02 | 2.57 | 0.02 | 0.23 |  |
| Cc1nc2ccc(-c3cc(N)nc(N)c3)nc2n1C [Example 4, 4-(2,3-dimethyl-3H-imidazo[4,5-b]pyridin-5-yl)pyridine-2,6-diamine] | 0.011 | 1.26 | 0.015 | 0.25 |  |
| Cc1nc2ccc(-c3cc(N)nc(N)c3)nc2n1Cc1ccncc1 [Example 5, 4-[2-methyl-3-(pyridin-4-ylmethyl)-3H-imidazo[4,5-b]pyridin-5-yl]pyridine-2,6-diamine] | 0.02 | 6.56 | 0.006 | 1 |  |
| Cc1nc2ccc(-c3cc(N)nc(N)c3)nc2n1Cc1ccccn1 [Example 6, 4-[2-methyl-3-(pyridin-2-ylmethyl)-3H-imidazo[4,5-b]pyridin-5-yl]pyridine-2,6-diamine] | 0.493 | 1.09 | 0.155 |  | 0.149 |
| Cc1nc2ccc(-c3cc(N)nc(N)c3)nc2n1Cc1cccnc1 [Example 7, 4-[2-methyl-3-(pyridin-3-ylmethyl)-3H-imidazo[4,5-b]pyridin-5-yl]pyridine-2,6-diamine] | 0.079 | 2.38 | 0.07 |  |  |
| Cc1nc2ccc(-c3cc(N)nc(N)c3)nc2n1Cc1ccc(F)cc1 [Example 10, 4-[3-(4-fluorobenzyl)-2-methyl-3H-imidazo[4,5-b]pyridin-5-yl]pyridine-2,6-diamine] | 0.079 | 4.58 | 0.032 |  | 0.055 |
| Cc1nc2ccc(-c3cc(N)nc(N)c3)nc2n1CC1CC1 [Example 11, 4-[3-(cyclopropylmethyl)-2-methyl-3H-imidazo[4,5-b]pyridin-5-yl]pyridine-2,6-diamine] | 0.011 | 3.45 | 0.004 | 0.17 |  |
| Cc1nc2ccc(-c3cc(N)nc(N)c3)nc2n1CCCN1CCCC1=O [Example 13, 1-{3-[5-(2,6-diaminopyridin-4-yl)-2-methyl-3H-imidazo[4,5-b]pyridin-3-yl]propyl}pyrrolidin-2-one] | 0.035 | > 10 | 0.012 |  | 0.019 |
| Cc1nc2ccc(-c3cc(N)nc(N)c3)nc2n1Cc1cccs1 [Example 20, 4-[2-methyl-3-(thiophen-2-ylmethyl)-3H-imidazo[4,5-b]pyridin-5-yl]pyridine-2,6-diamine] | 0.032 | 2.92 | 0.016 |  | 0.016 |
| Cc1nc2ccc(-c3cc(N)nc(N)c3)nc2n1CCc1cnn(-c2ccccc2)c1 [Example 21, 4-{2-methyl-3-[2-(1-phenyl-1H-pyrazol-4-yl)ethyl]-3H-imidazo[4,5-b]pyridin-5-yl}pyridine-2,6-diamine] | 0.053 | 12.5 | 0.015 |  |  |
| CC(=O)Nc1ccc(CCn2c(C)nc3ccc(-c4cc(N)nc(N)c4)nc32)cc1 [Example 24, N-(4-{2-[5-(2,6-diaminopyridin-4-yl)-2-methyl-3H-imidazo[4,5-b]pyridin-3-yl]ethyl}phenyl)acetamide] | 0.008 | 3.53 | 0.005 |  | 0.015 |
| Cc1nc2ccc(-c3cc(N)nc(N)c3)nc2n1CCc1cccs1 [Example 26, 4-{2-methyl-3-[2-(thiophen-2-yl)ethyl]-3H-imidazo[4,5-b]pyridin-5-yl}pyridine-2,6-diamine] | 0.007 | 1.82 | 0.004 |  | 0.006 |
| Cc1nc2ccc(-c3cc(N)nc(N)c3)nc2n1CCOc1cccc2ccccc12 [Example 27, 4-{2-methyl-3-[2-(naphthalen-1-yloxy)ethyl]-3H-imidazo[4,5-b]pyridin-5-yl}pyridine-2,6-diamine] | 0.056 | > 10 | 0.015 |  | 0.005 |
| Cc1nc2ccc(-c3cc(N)nc(N)c3)nc2n1CC(F)(F)F [Example 28, 4-[2-methyl-3-(2,2,2-trifluoroethyl)-3H-imidazo[4,5-b]pyridin-5-yl]pyridine-2,6-diamine] |  | 5.7 |  |  |  |
| Cc1nc2ccc(-c3cc(N)nc(N)c3)nc2n1CC(C)(C)C [Example 30, 4-[3-(2,2-dimethylpropyl)-2-methyl-3H-imidazo[4,5-b]pyridin-5-yl]pyridine-2,6-diamine] | 0.018 | 3.57 | 0.017 |  | 0.125 |
| CCC(C)Cn1c(C)nc2ccc(-c3cc(N)nc(N)c3)nc21 (stereo not shown) [Example 34, 4-[2-methyl-3-(2-methylbutyl)-3H-imidazo[4,5-b]pyridin-5-yl]pyridine-2,6-diamine] | 0.01 | 1.4 | 0.03 |  | 0.015 |
| Cc1nc2ccc(-c3cc(N)nc(N)c3)nc2n1Cc1ccccc1Cl [Example 47, 4-[3-(2-chlorobenzyl)-2-methyl-3H-imidazo[4,5-b]pyridin-5-y]pyridine-2,6-diamine] | 0.025 | 0.728 | 0.003 |  | 0.046 |
| Cc1nc2ccc(-c3cc(N)nc(N)c3)nc2n1Cc1cc(OC(F)(F)F)ccc1F [Example 50, 4-{3-[2-fluoro-5-(trifluoromethoxy)benzyl]-2-methyl-3H-imidazo[4,5-b]pyridin-5-yl}pyridine-2,6-diamine] | 0.057 | 1.99 | 0.029 |  |  |
| Cc1nc2ccc(-c3cc(N)nc(N)c3)nc2n1C(C)C [Example 53, 4-[2-methyl-3-(propan-2-yl)-3H-imidazo[4,5-b]pyridin-5-yl]pyridine-2,6-diamine] |  | 1.31 |  |  |  |
| Cc1nc2ccc(-c3cc(N)nc(N)c3)nc2n1CC1CCCCC1 [Example 55, 4-[3-(cyclohexylmethyl)-2-methyl-3H-imidazo[4,5-b]pyridin-5-yl]pyridine-2,6-diamine] | 0.024 |  | 0.002 | 0.16 | 0.021 |
| Cc1nc2ccc(-c3cc(N)nc(N)c3)nc2n1C12CC3CC(CC(C3)C1)C2 [Example 56, 4-{2-methyl-3-tricyclo[3.3.1.1^3,7]dec-1-yl-3H-imidazo[4,5-b]pyridin-5-yl}pyridine-2,6-diamine] | 0.015 | 0.357 | 0.009 |  |  |
| Cc1nc2ccc(-c3cc(N)nc(N)c3)nc2n1Cc1cc(Cl)ccc1Cl [Example 57, 4-[3-(2,5-dichlorobenzyl)-2-methyl-3H-imidazo[4,5-b]pyridin-5-yl]pyridine-2,6-diamine] | 0.085 | > 10 | 0.026 |  | 0.005 |
| CCCc1nc2ccc(-c3cc(N)nc(N)c3)nc2n1C1CCCC1 [Example 160, 4-(3-cyclopentyl-2-propyl-3H-imidazo[4,5-b]pyridin-5-yl)pyridine-2,6-diamine] | 0.024 |  | 0.003 | 0.144 | 0.068 |
